Experiments:
[1] = target: T1, Intercellular adhesion molecule (ICAM-1), Integrin alpha-L/beta-2 (Homo sapiens, UniProt P05107+P20701); experiment: Inhibitory concentration against integrin LFA-1/ICAM-1 binding complex; type: protein-complex assay
[2] = target: T1, Intercellular adhesion molecule (ICAM-1), Integrin alpha-L/beta-2; experiment: Effective concentration to measure the adherence of LFA-1 expressing JY8 cells to immobilized ICAM-1 in cell-based adhesion assay
[3] = target: T2, Intercellular adhesion molecule (ICAM-1), Integrin alpha-L/beta-2 (Homo sapiens) (UniProt P20701+P05362+P05107); experiment: Inhibitory activity against ICAM-1/integrin LFA-1 binding complex at 1 uM concentration; type: protein-complex assay
[4] = target: T2, Intercellular adhesion molecule (ICAM-1), Integrin alpha-L/beta-2 (Homo sapiens); experiment: Inhibitory activity against ICAM-1/integrin LFA-1 binding complex at 20 uM concentration; type: protein-complex assay

T1 sequence (P20701 whole entry): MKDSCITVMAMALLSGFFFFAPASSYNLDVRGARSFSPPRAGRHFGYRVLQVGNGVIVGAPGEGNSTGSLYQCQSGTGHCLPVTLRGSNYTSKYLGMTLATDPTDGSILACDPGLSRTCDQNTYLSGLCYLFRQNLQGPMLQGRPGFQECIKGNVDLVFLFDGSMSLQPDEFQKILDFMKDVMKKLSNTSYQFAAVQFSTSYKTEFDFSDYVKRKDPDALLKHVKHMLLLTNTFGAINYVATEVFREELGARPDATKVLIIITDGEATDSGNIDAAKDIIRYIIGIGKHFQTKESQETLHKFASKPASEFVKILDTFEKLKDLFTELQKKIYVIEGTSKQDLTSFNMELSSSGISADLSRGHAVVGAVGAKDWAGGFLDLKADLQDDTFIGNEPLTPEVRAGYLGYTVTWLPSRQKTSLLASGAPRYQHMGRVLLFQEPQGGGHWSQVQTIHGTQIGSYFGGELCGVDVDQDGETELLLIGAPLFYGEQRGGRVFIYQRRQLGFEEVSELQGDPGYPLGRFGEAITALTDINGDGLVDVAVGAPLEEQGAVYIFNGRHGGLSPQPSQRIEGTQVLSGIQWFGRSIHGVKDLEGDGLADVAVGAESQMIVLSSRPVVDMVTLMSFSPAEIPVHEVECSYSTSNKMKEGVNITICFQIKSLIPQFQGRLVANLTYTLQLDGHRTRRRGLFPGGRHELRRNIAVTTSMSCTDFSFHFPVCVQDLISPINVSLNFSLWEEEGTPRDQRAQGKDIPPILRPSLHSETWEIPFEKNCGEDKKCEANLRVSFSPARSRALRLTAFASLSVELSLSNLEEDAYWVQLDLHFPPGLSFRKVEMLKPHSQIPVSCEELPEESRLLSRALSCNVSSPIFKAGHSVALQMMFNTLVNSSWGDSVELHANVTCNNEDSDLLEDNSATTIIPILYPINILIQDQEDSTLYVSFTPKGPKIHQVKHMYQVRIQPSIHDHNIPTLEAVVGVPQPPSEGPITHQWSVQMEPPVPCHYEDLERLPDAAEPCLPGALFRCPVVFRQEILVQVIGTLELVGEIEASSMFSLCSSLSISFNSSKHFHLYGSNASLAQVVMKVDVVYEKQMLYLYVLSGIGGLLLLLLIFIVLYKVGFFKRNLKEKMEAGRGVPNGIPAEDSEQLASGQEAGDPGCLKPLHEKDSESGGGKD
T1 sequence (P05362 whole entry, further chain): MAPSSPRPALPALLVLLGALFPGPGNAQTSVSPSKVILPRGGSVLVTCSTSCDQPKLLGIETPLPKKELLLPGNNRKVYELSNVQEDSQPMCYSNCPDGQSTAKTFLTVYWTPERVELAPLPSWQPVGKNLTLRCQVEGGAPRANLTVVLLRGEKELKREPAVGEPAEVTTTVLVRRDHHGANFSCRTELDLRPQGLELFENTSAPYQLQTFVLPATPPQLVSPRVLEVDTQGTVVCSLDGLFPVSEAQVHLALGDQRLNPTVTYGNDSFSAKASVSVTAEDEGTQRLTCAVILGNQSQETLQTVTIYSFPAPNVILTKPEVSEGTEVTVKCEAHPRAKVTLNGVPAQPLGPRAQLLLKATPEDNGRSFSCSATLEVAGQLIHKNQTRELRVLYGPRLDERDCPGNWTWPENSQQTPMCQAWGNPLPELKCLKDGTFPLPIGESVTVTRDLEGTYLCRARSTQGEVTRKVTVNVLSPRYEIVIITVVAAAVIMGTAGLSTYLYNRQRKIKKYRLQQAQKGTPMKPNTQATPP
T1 sequence (P05107 whole entry): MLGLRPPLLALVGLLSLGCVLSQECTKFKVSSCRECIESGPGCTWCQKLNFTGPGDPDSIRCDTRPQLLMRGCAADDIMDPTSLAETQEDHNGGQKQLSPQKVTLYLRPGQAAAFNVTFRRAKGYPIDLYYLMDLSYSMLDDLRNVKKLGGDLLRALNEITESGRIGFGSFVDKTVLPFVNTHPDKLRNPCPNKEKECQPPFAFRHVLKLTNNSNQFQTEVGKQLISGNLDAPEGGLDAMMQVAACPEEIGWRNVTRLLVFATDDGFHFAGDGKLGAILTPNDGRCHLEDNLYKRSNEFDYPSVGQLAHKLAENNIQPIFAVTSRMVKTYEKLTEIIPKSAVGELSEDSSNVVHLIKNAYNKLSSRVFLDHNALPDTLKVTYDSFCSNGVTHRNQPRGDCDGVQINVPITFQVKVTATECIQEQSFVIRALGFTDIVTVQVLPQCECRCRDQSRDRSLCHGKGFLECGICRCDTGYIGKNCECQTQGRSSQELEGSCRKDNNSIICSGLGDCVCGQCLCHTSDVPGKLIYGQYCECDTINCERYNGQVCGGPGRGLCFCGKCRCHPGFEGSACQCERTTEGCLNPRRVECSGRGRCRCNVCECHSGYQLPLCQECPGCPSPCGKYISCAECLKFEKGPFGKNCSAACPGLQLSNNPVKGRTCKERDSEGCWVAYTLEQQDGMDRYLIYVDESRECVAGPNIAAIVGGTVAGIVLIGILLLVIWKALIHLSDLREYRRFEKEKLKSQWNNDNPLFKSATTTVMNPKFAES

**Q.** For `CC(C)c1ccccc1Sc1ccc(-c2cc(N3CCCC(c4nn[nH]n4)C3)ncn2)cc1C(F)(F)F` (centres undefined), which IC50 [1] is on record?
**A.** 51 nM

**Q.** And the EC50 [2]?
**A.** 20 nM

**Q.** `CC(C)c1ccccc1Sc1ccc(-c2cc(N3CCCC(C(=O)O)C3)ncn2)cc1C(F)(F)F` (centres undefined) was tested. Which IC50 [1] did it give?
**A.** 120 nM

**Q.** What about the EC50 [2] of the same molecule?
**A.** 90 nM

**Q.** For `CC(C)c1ccccc1Sc1ccc(-c2ccnc(N3CCCC(C)(C)C3)c2)cc1C(F)(F)F`, which inhibition [3] is on record?
**A.** 22%

**Q.** For `CC1CCN(c2cc(-c3ccc(Sc4ccccc4C(C)C)c(C(F)(F)F)c3)ccn2)CC1`, which inhibition [3] is on record?
**A.** 40%

**Q.** How did the inhibition [3] turn out when `CCCC1CCN(c2cc(-c3ccc(Sc4ccccc4C(C)C)c(C(F)(F)F)c3)ccn2)CC1` was run?
**A.** 8%

**Q.** `CCN1CCN(c2cc(-c3ccc(Sc4ccccc4C(C)C)c(C(F)(F)F)c3)ccn2)CC1` was tested. Which inhibition [3] did it give?
**A.** 54%

**Q.** How did the inhibition [4] turn out when `CC(C)c1ccccc1Sc1ccc(-c2csc(N3CCCCC3)n2)cc1C(F)(F)F` was run?
**A.** 40%

Reference: ChEMBL document CHEMBL1140269, “Amino-substituted heterocycles as isosteres of trans-cinnamides: design and synthesis of heterocyclic biaryl sulfides as potent antagonists of LFA-1/ICAM-1 binding” (Bioorg Med Chem Lett, 2005)
